This assay concerns the target T1, GLP-1 receptor (Rattus norvegicus, UniProt P32301).
T1 construct: 96-well assay plate containing RIN m5f cell membranes in an ATP/GTP mixture; endogenous in cells; host or cells: RIN m5f cell membranes
T1 sequence (P32301 22-463): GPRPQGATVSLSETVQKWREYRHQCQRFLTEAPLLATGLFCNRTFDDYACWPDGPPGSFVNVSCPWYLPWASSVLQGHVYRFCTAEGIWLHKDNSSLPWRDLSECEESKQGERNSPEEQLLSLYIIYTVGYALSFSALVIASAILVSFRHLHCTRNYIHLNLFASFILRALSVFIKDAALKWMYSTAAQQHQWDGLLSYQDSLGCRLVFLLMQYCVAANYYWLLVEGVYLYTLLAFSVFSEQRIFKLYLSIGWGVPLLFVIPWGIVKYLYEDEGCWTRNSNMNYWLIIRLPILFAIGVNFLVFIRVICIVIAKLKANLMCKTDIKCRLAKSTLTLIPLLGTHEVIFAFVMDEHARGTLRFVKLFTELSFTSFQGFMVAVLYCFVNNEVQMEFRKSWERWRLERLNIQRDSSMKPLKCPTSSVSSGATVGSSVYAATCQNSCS
As to the kind of experiment: in vitro functional assay at the GLP-1 receptor (cyclase, cAMP production in RIN m5f cell membranes). The assay is classed as biochemical. Conditions: Table 1, RIN m5f cell membranes, cAMP production (AlphaScreen). As to the method:
The compounds shown in Table 1 below were analyzed in an in vitro functional assay at the GLP-1 receptor. The assay was conducted as follows: Membrane fractions were prepared from confluent cultures of RIN m5f cells. Compounds were serially diluted with an assay buffer, and then added to a 96-well assay plate containing RIN m5f cell membranes in an ATP/GTP mixture. Cyclase activities were determined by measuring the production of cAMP induced through GLP-1 receptor activation. Quantification of cAMP production was achieved through a competitive chemiluminescence assay with a biotinylated-cAMP probe using Perkin Elmer Fusion™-Alpha Microplate Analyzer (AlphaScreen™ technology). The compound EC50 values were obtained through fitting the concentration-response curves to a four-parameter logistic equation within GraphPad PRISM® software.

[1] abbreviates: Cyclase GLP-1 Receptor EC50 (nM).

EC50 data for four compounds are collected here from patent US8642544B2, “N-terminus conformationally constrained GLP-1 receptor agonist compounds” (Amylin Pharmaceuticals, LLC, priority 2009, dated 2014).

Where two headings read alike, the source gives them in different places.

For orientation: EC50 means the concentration needed to bring the measured effect to its halfway point. `CC[C@H](C)[C@H](NC(=O)[C@H](Cc1ccccc1)NC(=O)[C@H](CC(C)C)NC(=O)[C@H](CCCNC(=N)N)NC(=O)[C@@H](NC(=O)[C@H](C)NC(=O)[C@H](CCC(=O)O)NC(=O)[C@H](CCC(=O)O)NC(=O)[C@H](CCC(=O)O)NC(=O)[C@H](CC(C)C)NC(=O)[C@H](CCC(N)=O)NC(=O)[C@H](CCCCN)NC(=O)[C@H](CO)NC(=O)[C@H](CC(C)C)NC(=O)[C@H](CC(=O)O)NC(=O)[C@H](CO)NC(=O)[C@@H](NC(=O)[C@H](Cc1ccccc1)NC(=O)[C@@H](NC(=O)CNC(=O)[C@@H]1CSCN1C(=O)CNC(=O)[C@@H](N)Cc1c[nH]cn1)[C@@H](C)O)[C@@H](C)O)C(C)C)C(=O)N[C@@H](CCC(=O)O)C(=O)N[C@@H](Cc1ccccc1)C(=O)N[C@@H](CC(C)C)C(=O)N[C@@H](CCCCN)C(=O)N[C@@H](CC(N)=O)C(N)=O` [5C]: the EC50 (read-out: Cyclase GLP-1 Receptor EC50) came to 1.06 nM.
Consider `CC[C@H](C)[C@H](NC(=O)[C@H](Cc1ccccc1)NC(=O)[C@H](CC(C)C)NC(=O)[C@H](CCCNC(=N)N)NC(=O)[C@@H](NC(=O)[C@H](C)NC(=O)[C@H](CCC(=O)O)NC(=O)[C@H](CCC(=O)O)NC(=O)[C@H](CCC(=O)O)NC(=O)[C@H](CC(C)C)NC(=O)[C@H](CCC(N)=O)NC(=O)[C@H](CCCCN)NC(=O)[C@H](CO)NC(=O)[C@H](CC(C)C)NC(=O)[C@H](CC(=O)O)NC(=O)[C@H](CO)NC(=O)[C@@H](NC(=O)[C@H](Cc1ccccc1)NC(=O)[C@@H](NC(=O)CNC(=O)[C@@H]1CCCN1C(=O)[C@@H](NC(=O)[C@@H](N)Cc1c[nH]cn1)C(C)C)[C@@H](C)O)[C@@H](C)O)C(C)C)C(=O)N[C@@H](CCC(=O)O)C(=O)N[C@@H](Cc1ccccc1)C(=O)N[C@@H](CC(C)C)C(=O)N[C@@H](CCCCN)C(=O)N[C@@H](CC(N)=O)C(N)=O` [6C], for which the midpoint of the response under setting [1], the EC50, lay at 152 nM.
The same measure, in the same setting: the value for `CC[C@H](C)[C@H](NC(=O)[C@H](Cc1ccccc1)NC(=O)[C@H](CC(C)C)NC(=O)[C@H](CCCNC(=N)N)NC(=O)[C@@H](NC(=O)[C@H](C)NC(=O)[C@H](CCC(=O)O)NC(=O)[C@H](CCC(=O)O)NC(=O)[C@H](CCC(=O)O)NC(=O)[C@H](CC(C)C)NC(=O)[C@H](CCC(N)=O)NC(=O)[C@H](CCCCN)NC(=O)[C@H](CO)NC(=O)[C@H](CC(C)C)NC(=O)[C@H](CC(=O)O)NC(=O)[C@H](CO)NC(=O)[C@@H](NC(=O)[C@H](Cc1ccccc1)NC(=O)[C@@H](NC(=O)[C@@H]1CSSC[C@@H](NC(=O)[C@@H](N)Cc2c[nH]cn2)C(=O)N2CCC[C@H]2C(=O)N1)[C@@H](C)O)[C@@H](C)O)C(C)C)C(=O)N[C@@H](CCC(=O)O)C(=O)N[C@@H](Cc1ccccc1)C(=O)N[C@@H](CC(C)C)C(=O)N[C@@H](CCCCN)C(=O)N[C@@H](CC(N)=O)C(N)=O` [8B] was 1.26 nM; that for `CC[C@H](C)[C@H](NC(=O)[C@H](Cc1ccccc1)NC(=O)[C@H](CC(C)C)NC(=O)[C@H](CCCNC(=N)N)NC(=O)[C@@H](NC(=O)[C@H](C)NC(=O)[C@H](CCC(=O)O)NC(=O)[C@H](CCC(=O)O)NC(=O)[C@H](CCC(=O)O)NC(=O)[C@H](CC(C)C)NC(=O)[C@H](CCC(N)=O)NC(=O)[C@H](CCCCN)NC(=O)[C@H](CO)NC(=O)[C@H](CC(C)C)NC(=O)[C@H](CC(=O)O)NC(=O)[C@H](CO)NC(=O)[C@@H](NC(=O)[C@H](Cc1ccccc1)NC(=O)[C@@H](NC(=O)[C@H]1CSSC[C@@H](NC(=O)[C@@H](N)Cc2c[nH]cn2)C(=O)N2CCC[C@H]2C(=O)N1)[C@@H](C)O)[C@@H](C)O)C(C)C)C(=O)N[C@@H](CCC(=O)O)C(=O)N[C@@H](Cc1ccccc1)C(=O)N[C@@H](CC(C)C)C(=O)N[C@@H](CCCCN)C(=O)N[C@@H](CC(N)=O)C(N)=O` [8C] was 969 nM.
